Results published in PMC5608556, “Photo-affinity labelling and biochemical analyses identify the target of trypanocidal simplified natural product analogues” (PLoS Neglected Tropical Diseases, 2017).

Tests used:
[1] = tested on: mitochondrial membrane potential (Δψm) in live PF T. brucei; experiment: MitoTracker monitoring of mitochondrial membrane potential; type: cell-based, Trypanosoma brucei; conditions: 2 h, AA and OA 2 μM, DNP 1 mM
Source text: To determine which mitochondrial complex of oxidative phosphorylation was targeted by B-THP-T compounds, their effects on the mitochondrial membrane potential (Δψm) were monitored in live PF T. brucei (Fig 6A). MitoTracker Red CMXRos, like tetramethylrhodamine and safranine, accumulates in active mitochondria and the degree of accumulation is dependent on the Δψm, however, accumulation of MitoTracker Green FM is independent of the Δψm and the ratio of red/green uptake can therefore be used to determine the Δψm normalised to the number and size of mitochondria present. […] Similarly, compounds 1 and 3 elevated the mitochondrial membrane potential (by 2-3-fold), confirming that they, like OA, reduce oxidative phosphorylation by the inhibition of the FoF1-ATP synthase.
Fig 6 Effects of compounds on mitochondrial membrane potential. PF T. brucei were incubated with inhibitors and MitoTracker Red CMXRos, which is an indicator of the mitochondrial membrane potential (Δψm). (A) MitoTracker-loaded cells were imaged to qualitatively detect differences in the Δψm. […] (B) Fluorescence of MitoTracker-loaded cells were quantified using a microplate reader and normalised to MitoTracker green fluorescence.
2 x 10^6 PF T. brucei cells were incubated in 1 mL GF-SDM-79 growth media supplemented with/without inhibitors for 2 h. B-THP-Ts were used at 40 μM, AA and OA at 2 μM, DNP at 1 mM and SHAM at 100 μM. MitoTracker Red CMXRos and MitoTracker Green FM were added to 100 nM and 1 μM respectively and incubated for a further 10 min. Cells were washed in growth medium and the MitoTracker reagents chased into the mitochondrion for 10 min in fresh growth medium supplemented with inhibitors. Cells were washed again in growth medium to remove unincorporated MitoTracker reagents, pelleted, suspended in 100 μL 4% PFA in PBS, and fixed at RT in the dark for 10 min. Fixed cells were pelleted and suspended in 100 μl PBS. Cells were transferred to poly-lysine-coated slides and mounted with DAPI-containing SlowFade mounting medium (Invitrogen). Fluorescence images were collected with a DeltaVision microscope (as detailed above) to show MitoTracker localisation and comparative intensity.
1 mL of cells at 1 x 10^7 cells/mL were labelled as above. However, instead of fixing cells they were resuspended in 200 μL growth medium and transferred to 96-well plates. Fluorescences were recorded (excitation at 540/35 nm, emission at 590/10 nm for MitoTracker Red CMXRos, and excitation at 485/20 nm, emission at 528/20 nm for MitoTracker Green FM) using a BioTek FLX800 spectrofluorimeter and Gen5 Reader Control 2.0 software, in much the same way as others have recorded previously. Background fluorescence values were subtracted from each and MitoTracker Red fluorescences normalised against their MitoTracker Green FM counterparts. Membrane potentials were then calculated relative to the uninhibited controls.

[2] = tested on: ATP production (oxidative phosphorylation) in digitonin-permeabilised PF T. brucei; experiment: ATP production assay in digitonin-permeabilised cells; type: cell-based, Trypanosoma brucei; conditions: 30 min; for Inhibition of ATP production from Gly-3P / Effect on ATP production from Gly-3P: glycerol-3-phosphate as substrate; for Inhibition of ATP production from Gly-3P / Effect on ATP production from succinate: compound 1, AA, OA 200 μM, DNP 1 mM; for Effect on ATP production from succinate: succinate 2.5 mM as substrate; for Effect on ATP production from succinate / Effect on ATP production from Gly-3P: malonate 5 mM, rotenone, SHAM 100 μM
Source text: We next sought to identify the point at which ATP production was blocked using digitonin-permeabilised cells. Digitonin permeabilises the plasma membrane of trypanosomatids, but crucially, leaves the glycosomes and mitochondria intact and fully functional, allowing them to be probed with compartment-specific ATP-yielding substrates. Digitonin-permeabilised PF T. brucei were probed with succinate, which is readily transported across the PF T. brucei mitochondrial membrane by the dicarboxylic acid carrier and can yield only oxidative phosphorylation-derived ATP through the FoF1-ATP synthase (complex V).
Fig 5 Inhibition of ATP production in digitonin-permeabilsed cells. (A-C) Digitonin-permeabilised PF T. brucei were probed with substrates in the presence of inhibitors and resulting ATP production quantified by bioluminescence assay. See experimental section for details. Inhibitors were used at saturating concentrations to ensure that relevant enzyme activities were ablated. Key: NS, no substrate; NI, no inhibitor; SHAM, salicylhydroxamic acid (TAO inhibitor at 100 μM); Rotenone (complex I inhibitor at 100 μM); Malonate (complex II inhibitor at 5 mM); AA, antimycin A (complex III inhibitor at 200 μM); OA, oligomycin A (complex V inhibitor at 200 μM); DNP, 2,4-dinitrophenol (protonophore at 1 mM); Comp.1, compound 1 at 200 μM. Background relative light units (RLU) were subtracted from measurements and % ATP production normalised to the no inhibitor control. Data were averaged from three independent experiments, each performed in quadruplicate. Error bars show standard deviations. T-tests were performed against no inhibitor controls (black asterisks) and compound 1 (grey open circles) and significance values presented: p < 0.00005 (*** / °°°), p < 0.0005 (** / °°), p < 0.005 (* / °). (A) Succinate was used as a substrate to generate ATP solely through oxidative phosphorylation (OxPhos). Oxidative phosphorylation inhibitors malonate, AA, OA and DNP virtually eliminated all ATP production. […] (B) α-ketoglutarate yields 40% ATP through substrate-level phosphorylation (SubPhos) and 60% through oxidative phosphorylation. Malonate, AA, OA and DNP inhibit oxidative phosphorylation, but not substrate-level phosphorylation. […] (C) Gly-3P acts as an alternative entry site to the electron transport chain yielding ATP through oxidative phosphorylation and the glycosome (GlyPhos). Malonate has no effect, as it acts at a different entry point. AA, OA and DNP inhibit oxidative phosphorylation, but not glycosomal phosphorylation.
ATP production assays were carried out in duplicate, and three independent assays were conducted. Cells were digitonin-permeabilised as previously described. Briefly, cells were washed in PBS and permeabilised for 5 min at a density of 1x10^8 cells/mL in SoTE buffer (20 mM Tris.HCl (pH 7.5), 2 mM EDTA pH 7.5, 600 mM sorbitol) supplemented with 0.015% (w/v) digitonin. Permeabilised cells were pelleted at 5000 g for 3 min at 4°C and suspended to 8.4x10^7 cells/mL in ATP assay buffer (20 mM Tris.HCl (pH 7.4), 15 mM KH2PO4, 0.6 M sorbitol, 10 mM MgSO4, 2.5 mg/mL fatty acid-free BSA.
ATP production assays were carried out in 75 μl volumes in 96-well plates with a final PF T. brucei cell density of 6.7 x 10^7 cells/mL as previously reported. […] B-THP-Ts, antimycin A (AA) and oligomycin A (OA) were used at 200 μM, Dinitrophenol (DNP) at 1 mM, malonate at 5 mM, rotenone at 100 μM and salicylhydroxamic acid (SHAM) at 100 μM. 59.25 μL digitonin-permeabilised cells (prepared above) were added to 0.75 μl inhibitor dissolved in DMSO (or 0.75 μL DMSO without inhibitor for no inhibitor control) and incubated for 10 min to allow inhibitors to take effect. Substrate was added to 2.5 mM and incubated for 10 min. Reactions were started with the addition of ADP to 60 μM and incubated at RT for 30 min. […]

T. brucei BSF = experiment: Toxicity (EC50) in bloodstream form T. brucei; type: cell-based, Trypanosoma brucei; conditions: Trypanosoma brucei; bloodstream form; footnote b
Source text: (§1) Fig 1 Labelling and detection of B-THP-T target(s). (A) Structures of chamuvarinin and simplified analogues thereof as probes used in this study and their respective toxicity in selected cell lines. Bi-functional compound 3 contains a diazirine (blue) to cross-link the compound to its target and an alkyne handle (red) to which an azide-containing reporter probe can be added. Mono-functional compound 2 contains the diazirine to cross-link to its target but lacks the alkyne handle and cannot be appended with an azide reporter probe. Lead B-THP-T, compound 1, lacks both diazirine and alkyne. The additional functional groups on compounds 2 and 3 are minor alterations, which have little effect on inhibitor potency. (B) Overview of the in vivo pulse-chase photo-affinity labelling procedure. B-THP-T were incubated with live PF T. brucei cells and trafficked to their targets. Following UV-irradiation, only compounds containing a diazirine (i.e. compounds 2 and 3) could cross-link with target proteins. The subsequent “click reaction” appended the conjugated B-THP-T with a reporter probe as long as an alkyne handle was present (i.e. on compound 3). Refer to the experimental section for details. (C) Detection of Cy5.5-tagged proteins following photo-affinity labelling. Proteins were separated by SDS-PAGE and conjugated Cy5.5 was detected at 700 nm. Lanes 1–3 correspond to usage of compounds 1–3 respectively. Several proteins in lane 3 were conjugated with Cy5.5 via labelling with bi-functional compound 3. […]

HeLa = experiment: Toxicity (EC50) in HeLa cells; type: cell-based; conditions: Homo sapiens, footnote b, read-out: EC50 values Mammal HeLa
Source text: Fig 1 Labelling and detection of B-THP-T target(s). (A) Structures of chamuvarinin and simplified analogues thereof as probes used in this study and their respective toxicity in selected cell lines. Bi-functional compound 3 contains a diazirine (blue) to cross-link the compound to its target and an alkyne handle (red) to which an azide-containing reporter probe can be added. Mono-functional compound 2 contains the diazirine to cross-link to its target but lacks the alkyne handle and cannot be appended with an azide reporter probe. Lead B-THP-T, compound 1, lacks both diazirine and alkyne. The additional functional groups on compounds 2 and 3 are minor alterations, which have little effect on inhibitor potency. (B) Overview of the in vivo pulse-chase photo-affinity labelling procedure. B-THP-T were incubated with live PF T. brucei cells and trafficked to their targets. Following UV-irradiation, only compounds containing a diazirine (i.e. compounds 2 and 3) could cross-link with target proteins. The subsequent “click reaction” appended the conjugated B-THP-T with a reporter probe as long as an alkyne handle was present (i.e. on compound 3). Refer to the experimental section for details. (C) Detection of Cy5.5-tagged proteins following photo-affinity labelling. Proteins were separated by SDS-PAGE and conjugated Cy5.5 was detected at 700 nm. […]

T. brucei PF = experiment: Toxicity (EC50, cell viability) in procyclic form T. brucei; type: cell-based; conditions: Trypanosoma brucei, live cells, 72 h incubation, footnote a
Source text: as §1
The potency of lead B-THP-T, compound 1, was determined against oxidative phosphorylation in dose-response assays in digitonin-permeabilised PF T. brucei.
Supplementary file pntd.0005886.s001.tiff: S1 Fig Dose-response of B-THP-T compounds in PF T. brucei. EC50 values were determined for compounds 1–3 in PF T. brucei. […]

## O=[N+]([O-])c1ccc(O)c([N+](=O)[O-])c1 [2,4-dinitrophenol]
[1]
  Effect on mitochondrial membrane potential (Δψm): decrease the mitochondrial membrane potential
[2]
  Inhibition of ATP production from Gly-3P: 67 ± 13%
  Effect on ATP production from succinate: almost abolished ATP production

## OCCCC[C@H]1CC2(C[C@@H](Cn3cc([C@@H]4CCC[C@H](CCCCOCc5ccccc5)O4)nn3)O1)N=N2 [Compound 2, 4-((5S,7S)-7-((4-((2S,6S)-6-(4-(benzyloxy)butyl)tetrahydro-2H-pyran-2-yl)-1H-1,2,3-triazol-1-yl)methyl)-6-oxa-1,2-diazaspiro[2.5]oct-1-en-5-yl)butan-1-ol]
T. brucei BSF
  EC50: 11.8 ± 0.8 µM
HeLa
  EC50: 20.9 ± 3 µM
T. brucei PF
  EC50: 8.9 ± 0.2 µM

## C=C(C)[C@H]1Cc2c(ccc3c2O[C@@H]2COc4cc(OC)c(OC)cc4[C@@H]2C3=O)O1 [rotenone]
[2]
  Effect on ATP production from Gly-3P: no effect
  Effect on ATP production from succinate: no significant effect

## O=C(NO)c1ccccc1O [salicylhydroxamic acid]
[2]
  Effect on ATP production from Gly-3P: no effect
  Effect on ATP production from succinate: no significant effect

## oligomycin A
[1]
  Effect on mitochondrial membrane potential (Δψm): elevates the Δψm
[2]
  Inhibition of ATP production from Gly-3P: 65 ± 21%
  Effect on ATP production from succinate: almost abolished ATP production
